# Data published in PMC3961306, “Comparison of the Cancer Gene Targeting and Biochemical Selectivities of All Targeted Kinase Inhibitors Approved for Clinical Use” (PLoS ONE, 2014).
# Experiments:
# Experiment in all cases: Kinase profiling in a biochemical assay panel (mobility shift assays and ELISA), %-inhibition at 1 μM; selectivity entropy
# [1] = biological target: panel of more than 300 wild-type and mutant kinases (313 kinase panel) (Homo sapiens, UniProt Q02779); details: kinase MLK2; 1 μM
# [2] = biological target: panel of more than 300 wild-type and mutant kinases (313 kinase panel) (Homo sapiens, UniProt P36894); details: kinase BMPR1A; 1 μM compound
# [3] = biological target: T1, panel of more than 300 wild-type and mutant kinases (313 kinase panel) (Homo sapiens, UniProt P52333); details: kinase JAK3; compound at 1 μM
# T1 sequence (P52333 1-1124): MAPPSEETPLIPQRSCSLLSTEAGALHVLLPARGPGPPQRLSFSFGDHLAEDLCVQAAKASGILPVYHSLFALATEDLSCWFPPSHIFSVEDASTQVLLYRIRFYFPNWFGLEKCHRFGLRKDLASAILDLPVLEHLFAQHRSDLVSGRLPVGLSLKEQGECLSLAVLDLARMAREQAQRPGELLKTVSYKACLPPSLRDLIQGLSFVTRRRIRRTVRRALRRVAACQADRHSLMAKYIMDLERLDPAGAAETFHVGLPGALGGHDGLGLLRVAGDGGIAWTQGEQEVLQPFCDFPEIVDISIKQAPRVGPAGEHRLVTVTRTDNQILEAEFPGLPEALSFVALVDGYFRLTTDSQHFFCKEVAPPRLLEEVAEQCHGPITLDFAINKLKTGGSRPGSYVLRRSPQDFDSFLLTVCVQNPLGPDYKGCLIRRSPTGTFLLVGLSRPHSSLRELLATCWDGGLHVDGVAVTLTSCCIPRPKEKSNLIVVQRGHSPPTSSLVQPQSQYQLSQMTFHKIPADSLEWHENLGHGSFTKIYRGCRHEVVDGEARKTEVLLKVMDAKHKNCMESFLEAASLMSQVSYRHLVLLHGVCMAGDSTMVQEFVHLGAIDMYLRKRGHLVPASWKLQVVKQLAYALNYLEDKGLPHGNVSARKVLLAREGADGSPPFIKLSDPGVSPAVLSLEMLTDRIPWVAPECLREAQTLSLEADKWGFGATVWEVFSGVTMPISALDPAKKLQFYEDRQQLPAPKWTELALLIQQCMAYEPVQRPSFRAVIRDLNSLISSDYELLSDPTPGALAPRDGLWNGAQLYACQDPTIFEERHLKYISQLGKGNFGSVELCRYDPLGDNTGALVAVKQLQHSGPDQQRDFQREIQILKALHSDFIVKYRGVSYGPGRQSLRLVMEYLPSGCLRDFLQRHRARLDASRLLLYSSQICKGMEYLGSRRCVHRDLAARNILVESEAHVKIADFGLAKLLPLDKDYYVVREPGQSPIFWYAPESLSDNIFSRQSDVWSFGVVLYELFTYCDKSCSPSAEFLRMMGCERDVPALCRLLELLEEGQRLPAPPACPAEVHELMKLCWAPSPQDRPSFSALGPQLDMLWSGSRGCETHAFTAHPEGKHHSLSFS
# [4] = biological target: panel of more than 300 wild-type and mutant kinases (313 kinase panel) (Homo sapiens, UniProt Q15208); details: kinase NDR1; 1 μM
# [5] = biological target: panel of more than 300 wild-type and mutant kinases (313 kinase panel) (Homo sapiens, UniProt Q04759); details: kinase PKCθ; 1 μM
# [6] = biological target: panel of more than 300 wild-type and mutant kinases (313 kinase panel) (Homo sapiens, UniProt Q16816)
# [7] = biological target: panel of more than 300 wild-type and mutant kinases (313 kinase panel) (Homo sapiens, UniProt Q9NYY3); details: kinase PLK2; 1 μM
# [8] = biological target: panel of more than 300 wild-type and mutant kinases (313 kinase panel) (Homo sapiens, UniProt P10721, D816V); details: kinase KIT(D816V); compound at 1 μM
# [9] = biological target: T2, panel of more than 300 wild-type and mutant kinases (313 kinase panel) (Homo sapiens, UniProt O14757); details: kinase CHK1; 1 μM compound
# T2 sequence (O14757 1-476): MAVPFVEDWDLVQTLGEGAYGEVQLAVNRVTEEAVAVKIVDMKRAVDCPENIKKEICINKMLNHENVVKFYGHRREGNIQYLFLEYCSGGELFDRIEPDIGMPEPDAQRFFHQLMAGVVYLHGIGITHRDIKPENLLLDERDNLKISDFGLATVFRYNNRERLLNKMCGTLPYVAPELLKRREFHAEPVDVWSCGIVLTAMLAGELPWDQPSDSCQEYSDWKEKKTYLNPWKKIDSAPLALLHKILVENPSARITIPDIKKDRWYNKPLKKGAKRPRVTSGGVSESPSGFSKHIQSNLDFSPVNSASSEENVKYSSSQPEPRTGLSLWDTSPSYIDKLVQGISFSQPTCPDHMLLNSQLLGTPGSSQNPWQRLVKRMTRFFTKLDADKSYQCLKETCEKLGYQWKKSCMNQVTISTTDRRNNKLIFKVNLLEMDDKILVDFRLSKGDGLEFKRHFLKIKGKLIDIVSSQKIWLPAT
# [10] = biological target: panel of more than 300 wild-type and mutant kinases (313 kinase panel) (Homo sapiens, UniProt Q9UKE5); details: kinase TNIK; 1 μM
# [11] = biological target: panel of more than 300 wild-type and mutant kinases (313 kinase panel) (Homo sapiens, UniProt P53667); details: kinase LIMK1; compound at 1 μM
# [12] = biological target: panel of more than 300 wild-type and mutant kinases (313 kinase panel) (Homo sapiens, UniProt P07949, Y791F)
Compound,%-inhibition of MLK2 [1] [%],"%-inhibition, BMPR1A [2] [%]",%-inhibition of JAK3 [3] [%],%-inhibition of NDR1 [4] [%],%-inhibition of PKCθ [5] [%],"%-inhibition of PHKG1 ([6]; kinase PHKG1, 1 μM) [%]",%-inhibition of PLK2 [7] [%],%-inhibition of KIT(D816V) [8] [%],"%-inhibition, CHK1 [9] [%]",%-inhibition of TNIK [10] [%],%-inhibition of LIMK1 [11] [%],"%-inhibition of RET(Y791F) ([12]; kinase RET(Y791F), 1 μM) [%]",%-inhibition of RET(Y791F) ([12]; 1 µM) [%],%-inhibition of PHKG1 ([6]; 1 µM) [%]
CO[C@H]1C[C@@H]2CC[C@@H](C)[C@@](O)(O2)C(=O)C(=O)N2CCCC[C@H]2C(=O)O[C@H]([C@H](C)C[C@@H]2CC[C@@H](OC(=O)C(C)(CO)CO)[C@H](OC)C2)CC(=O)[C@H](C)/C=C(\C)[C@@H](O)[C@@H](OC)C(=O)[C@H](C)C[C@H](C)/C=C/C=C/C=C/1C [temsirolimus],9,-9,-2,-4.55,-2.62,1.57,0.568,-2.12,4.42,-2.54,-5,-0.679,–,–
CNC(=O)c1cc(Oc2ccc(NC(=O)Nc3ccc(Cl)c(C(F)(F)F)c3)c(F)c2)ccn1 [regorafenib],0.795,-4.65,31,-9,-7.47,8,-3.23,40,-3,42,66,–,102,–
COc1cc2nccc(Oc3ccc(NC(=O)C4(C(=O)Nc5ccc(F)cc5)CC4)cc3)c2cc1OC [cabozantinib],6.67,2.27,2.34,-5.4,-4.28,53,4.4,23,4.42,16,51,–,–,–
Cc1nc(Nc2ncc(C(=O)Nc3c(C)cccc3Cl)s2)cc(N2CCN(CCO)CC2)n1 [dasatinib],–,–,–,-1.85,–,–,–,–,–,–,–,–,–,–
COc1cc2c(Nc3ccc(Br)cc3F)ncnc2cc1OCC1CCN(C)CC1 [vandetanib],12,46,2.34,-9,-0.702,68,-3,–,27,66,12,–,–,–
CC(C)(C)c1nc(-c2cccc(NS(=O)(=O)c3c(F)cccc3F)c2F)c(-c2ccnc(N)n2)s1 [dabrafenib],47,17,22,-0.891,–,-0.59,-4.64,9,–,15,100,36,–,–
Cc1ccc(Nc2nccc(N(C)c3ccc4c(C)n(C)nc4c3)n2)cc1S(N)(=O)=O [pazopanib],18,-1.7,38,2.49,-3.47,1.52,1.23,87,-7,83,–,94,–,–
N#CC[C@H](C1CCCC1)n1cc(-c2ncnc3[nH]ccc23)cn1 [ruxolitinib],22,5.7,–,88,-1.47,–,10,36,4.66,0.811,60,–,–,50
C[C@@H](Oc1cc(-c2cnn(C3CCNCC3)c2)cnc1N)c1c(Cl)ccc(F)c1Cl [crizotinib],4.7,41,77,-1.48,-3,2.74,1.1,21,10,11,94,–,–,–
CCN(CC)CCNC(=O)c1c(C)[nH]c(/C=C2\C(=O)Nc3ccc(F)cc32)c1C [sunitinib],–,–,–,9,–,95,–,–,–,94,–,–,–,–
Cc1ccc(C(=O)Nc2ccc(CN3CCN(C)CC3)c(C(F)(F)F)c2)cc1C#Cc1cnc2cccnn12 [ponatinib],39,6.48,98,–,0.0638,5,-1.17,–,3.23,96,68,102,–,–
